Measurements as given in patent US12239637B2, “Compositions and methods for treating neurological disorders” (priority 2018, dated 2025).
Marks after values point to notes of the source that are not given here.

Assays:
Type in all cases: in vivo, rhesus monkeys
[1] = test system: iNOS, Iba1-positive microglia, GFAP-positive astrocytes in the SNpc; assay: Glial inflammation in the SNpc of hemiparkinsonian monkeys (Iba1, GFAP, iNOS immunofluorescence); settings: oral 1 mg/kg body wt/d for 30 d
Description: FIG. 4 (A-E). […] After 30 d of treatment, nigral sections were double-labeled for Iba1 and iNOS (A) and GFAP and iNOS (B). Cells positive for Iba1 (C), GFAP (D) and iNOS (E) were counted using the olympus microsuite V software in two nigral sections (two images per slide) of each of four monkeys (n=4) per group. ap<0.001 vs. control; bp<0.001 vs MPTP; ns, not significant vs MPTP.
(§1) Female rhesus monkeys (6-8 years old; 5-7 kg) were used in this study. All animals were singly housed with a 12-h light/dark cycle. Purine monkey chow and water were available ad libitum. Diets were supplemented with fruit during the testing sessions. The study was performed in accordance with federal guidelines of proper animal care and with the approval of the IACUC. Monkeys were intoxicated with MPTP according to protocol described previously (12-16). Briefly, animals were tranquilized with ketamine (10 mg/kg, i.m.) and then maintained on an anesthetic plane with isoflurane (1-2%). The animals were put in the supine position. For each injection, a right-sided incision was made along the medial edge of the sternocleidomastoid muscle. […]
For immunofluorescence staining, anti-Iba-1 antibody (1:500), anti-iNOS antibody (1:1000), and anti-GFAP antibody (1:1000) were used. The samples were mounted and observed under an Olympus IX81 fluorescence microscope as described before (17-19).

[2] = test system: striatal dopamine, DOPAC and HVA; assay: HPLC analysis of striatal neurotransmitters in hemiparkinsonian monkeys; settings: oral 1 mg/kg body wt/d for 30 d
Experimental: FIG. 8 (A-E). Maraviroc protects striatal dopamine in hemiparkinsonian monkeys. Naïve female rhesus monkeys received a right intracarotid injection of MPTP. […] MPTP group of monkeys also received normal banana as control. After 30 d of treatment, dopamine levels were measured in dorsomedial caudate (A), ventromedial caudate (B), dorsal putamen (C), ventral putamen (D), and nucleus accumbens (E). HPLC quantification of dopamine was performed by a single investigator blinded to the experimental conditions. Data are means±SEM of four monkeys per group. ap<0.001 vs MPTP-intact; bp<0.001 vs MPTP-lesion.
FIG. 9 (A-E). Maraviroc protects striatal DOPAC and HVA in hemiparkinsonian monkeys. Naïve female rhesus monkeys received a right intracarotid injection of MPTP. […] After 30 d of treatment, levels of DOPAC and HVA were measured in dorsomedial caudate (A), ventromedial caudate (B), dorsal putamen (C), ventral putamen (D), and nucleus accumbens (E). HPLC quantification of DOPAC and HVA was performed by a single investigator blinded to the experimental conditions. […]
(§2) At the end point, monkeys were anesthetized with pentobarbital (25 mg/kg intravenously) and killed via perfusion with 0.9% saline. […] These punches were processed for HPLC analysis (for quantification of neurotransmitters). […]
Samples were analyzed for neurotransmitters by an investigator blind to the treatment groups. […]

hemiparkinsonian monkeys = assay: Behavioral analysis: parkinsonian rating scale (PD scale) and hand reaching task in hemiparkinsonian monkeys
Experimental: Female rhesus monkeys (6-8 years old; 5-7 kg) were used in this study. All animals were singly housed with a 12-h light/dark cycle. Purine monkey chow and water were available ad libitum. Diets were supplemented with fruit during the testing sessions. The study was performed in accordance with federal guidelines of proper animal care and with the approval of the IACUC. Monkeys were intoxicated with MPTP according to protocol described previously (12-16). Briefly, animals were tranquilized with ketamine (10 mg/kg, i.m.) and then maintained on an anesthetic plane with isoflurane (1-2%). The animals were put in the supine position. For each injection, a right-sided incision was made along the medial edge of the sternocleidomastoid muscle. The carotid sheath was opened and the common carotid artery, internal jugular vein, and vagus nerves were identified. The common carotid was exposed below the carotid bifurcation. The external carotid artery was then ligated. A 27 gauge butterfly needle was inserted into the common carotid artery in a direction retrograde to blood flow; for each injection, 20 ml of saline containing 3 mg of MPTP-HCl (Sigma) was infused at a rate of 1.33 ml/min (15 min). After the infusion was completed, 3 ml of saline was delivered, and then the incision was closed.
Monkeys displaying hemiparkinsonian symptoms 7 d after the first intracarotid injection were included in the study. […] The control group of hemiparkinsonian monkeys (n=4) received only banana as vehicle.
The animals were trained to a consistent level of performance before intracarotid injection of MPTP. Monkeys were rated thrice a week by an investigator blind to the treatment groups using a parkinsonian rating scale (PD scale) utilized to quantify the clinical status of the monkeys (13-16). The scale included ratings of 10 parkinsonian features (tremor, posture, locomotion, hypokinesia, bradykinesia, balance, fine and gross motor skills, startle response, and freezing). Each test consisted of twelve total trials alternating between arms, six per side. Delaying feeding time until after the task was completed ensured animals' compliance with the test. Data collected included the time taken for the animal to move its hand into the chamber where the fruit was located (reaction time), the time taken to pick up the fruit while the hand was in the chamber (reception time) and the total time taken to move the hand into the chamber, retrieve the fruit and bring the hand back out of the panel and into the cage (total time).
All values are expressed as means±SEM. Differences among means were analyzed by one-way ANOVA or Kruskal-Wallis test (comparison among all groups) and post-hoc pair-wise comparison. In other cases, two sample t tests were also used to compare control vs MPTP and MPTP vs MPTP+maraviroc. For behavioral analysis, one way repeated measure ANOVA models were used. Pair-wise comparisons were conducted with Bonferroni adjustment.

[3] = test system: TH-positive dopaminergic neurons and fibers; assay: TH immunostaining: dopaminergic neurons in the SNpc (stereology) and striatal TH fibers (optical density); settings: oral 1 mg/kg body wt/d for 30 d, lesion side
Experimental: FIG. 6 (A-C). Oral maraviroc treatment protects dopaminergic neurons in the SNpc of hemiparkinsonian monkeys. Naïve female rhesus monkeys received a right intracarotid injection of MPTP. […] MPTP group of monkeys also received normal banana as control. A) After 30 d of treatment, nigral sections were immunostained for TH. B) A magnified image of TH-stained SNpc is shown. […] All counting were performed by a single investigator blinded to the experimental conditions. ap<0.001 vs MPTP-intact; bp<0.01 vs MPTP-lesion.
FIG. 7 (A-B). Oral maraviroc treatment protects THir fibers in the striatum of hemiparkinsonian monkeys. Naïve female rhesus monkeys received a right intracarotid injection of MPTP. […] MPTP group of monkeys also received normal banana as control. A) After 30 d of treatment, striatal sections were immunostained for TH. B) Optical density of TH fibers in caudate and putamen was calculated by digital image analysis. Six different striatal sections of each monkey were analyzed. ap<0.001 vs MPTP-intact; bp<0.01 vs MPTP-Caudate-lesion; cp<0.01 vs MPTP-Putamen-lesion.
Female rhesus monkeys (6-8 years old; 5-7 kg) were used in this study. […]
as §2

α-syn = assay: α-Synucleinopathy in the nigra of hemiparkinsonian monkeys (TH and α-syn double-labeling); settings: oral 1 mg/kg body wt/d for 30 d
Description: FIG. 5 (A-C). […] Naïve female rhesus monkeys received a right intracarotid injection of MPTP. […] MPTP group of monkeys also received normal banana as control. After 30 d of treatment, nigral (A) sections were double-labeled for TH and α-syn. Total area (B) and integrated density (C) of α-syn bodies were quantified in two sections (two images per section) of each of four monkeys per group. ap<0.001 vs control (MPTP-intact); bp<0.001 vs MPTP-lesion.
as §1, with “position.” for “position. For each injection, a right-sided incision was made along the medial edge of the sternocleidomastoid muscle.”
as §2

[4] = test system: CD4+ and CD8+ T cells in the nigra; assay: Infiltration of CD4+ and CD8+ T cells into the nigra of hemiparkinsonian monkeys (immunostaining); settings: oral 1 mg/kg body wt/d for 30 d from 7 d after MPTP; near blood vessel and in deep parenchyma of ventral midbrain
Description: (§3) FIG. 2 (A-E). […] Naïve female rhesus monkeys received a right intracarotid injection of MPTP. […] MPTP group of monkeys also received normal banana as control. After 30 d of treatment, ventral midbrain sections were DAB-stained for CD4 (A, vessel; B, parenchyma). C) Sections were double-labeled for CD4 and TH. CD4-positive cells were counted in two nigral sections (D, within 100 μm around vessel; E, parenchyma within 100 to 200 μm around vessel) of each of four monkeys (n=4) per group. ap<0.001 vs. control; bp<0.01 vs. MPTP. Control represents the intact side of MPTP-intoxicated monkeys.
as §3, with “3 (A-D).” for “2 (A-E).”, “CD8” for “CD4”, “CD8-positive” for “C) Sections were double-labeled for CD4 and TH. CD4-positive”, “(C,” for “(D,”, “D,” for “E,”, “monkeys. […]” for “monkeys.”
as §2

[5] = PD scale score after treatment, 1 mg/kg body wt/d orally, mean ± SEM, four monkeys

Question: With maraviroc as the substance, how does the “expression of iNOS protein in the SNpc” value [1] read?
Answer: The value was “reduced”.

Question: What about the “number of astrocytes and microglia in the SNpc” value ([1]; GFAP- and Iba1-positive cells) of the same substance?
Answer: Its value is “did not significantly reduce”.

Question: And the “levels of DOPAC and HVA in different parts of striatum” value [2]?
Answer: The value was “restored”.

Question: What about the “DA in different parts of striatum” value ([2]; caudate, putamen, nucleus accumbens) of the same substance?
Answer: The value was “pronounced preservation”.

Question: And the “Balance (0-3)” value (hemiparkinsonian monkeys; [5])?
Answer: The value was 0.57 ± 0.04^a.

Question: What about the “Brady kinesia (0-5)” value (hemiparkinsonian monkeys; [5]) of the same substance?
Answer: The value was 0.85 ± 0.28^a.

Question: And the “Defense Reaction (0-2)” value (hemiparkinsonian monkeys; [5])?
Answer: The value was 0.24 ± 0.07^a.

Question: What about the “Freezing (0-2)” value (hemiparkinsonian monkeys; [5]) of the same substance?
Answer: Its value is 0.39 ± 0.03^a.

Question: What about the “Gait (0-5)” value (hemiparkinsonian monkeys; [5]) of the same substance?
Answer: The value was 0.25 ± 0.03^a.

Question: And the “General (Gross) motor skills (0-3), L Hand” value (hemiparkinsonian monkeys; [5])?
Answer: The value was 0.89 ± 0.05.

Question: What about the “General (Gross) motor skills (0-3), R Hand” value (hemiparkinsonian monkeys; [5]) of the same substance?
Answer: The value was 0.01 ± 0.00.

Question: What about the “Posture (0-3)” value (hemiparkinsonian monkeys; [5]) of the same substance?
Answer: Its value is 0.39 ± 0.04^a.

Question: And the “Tremor (0-3), L Hand” value (hemiparkinsonian monkeys; [5])?
Answer: Its value is 0.42 ± 0.03^a.

Question: And the “Tremor (0-3), R Hand” value (hemiparkinsonian monkeys; [5])?
Answer: The value was 0.00 ± 0.00.

Question: What about the “Total (Sum mean)” value (hemiparkinsonian monkeys; PD scale total score after treatment, 1 mg/kg body wt/d orally, mean ± SEM, four monkeys) of the same substance?
Answer: The value was 4.01 ± 0.40^a.

Question: And the “functional ability on clinical rating scale and operant motor test” value (hemiparkinsonian monkeys; oral 1 mg/kg body wt/d for 30 d)?
Answer: Its value is “significantly improved”.

Question: What about the “motor deficits in a hand-reach task” value (hemiparkinsonian monkeys; oral maraviroc) of the same substance?
Answer: The value was “reversed”.

Question: What about the “striatal TH fibers” value ([3]; caudate and putamen) of the same substance?
Answer: The value was “significantly restored”.

Question: And the “SNpc TH-positive neurons” value [3]?
Answer: The value was “significantly restored”.

Question: And the “α-syn pathology in the SNpc” value (α-syn)?
Answer: Its value is “almost missing”.

Question: And the “infiltration of CD4+ T cells into the nigra” value [4]?
Answer: Its value is “significantly attenuated”.

Question: What about the “infiltration of CD8+ T cells into the nigra” value [4] of the same substance?
Answer: The value was “significantly attenuated”.
